Test results from ChEMBL document CHEMBL3044879, “Design, synthesis, and preliminary in vitro and in vivo pharmacological evaluation of 4-{4-[2-(4-(2-substitutedquinoxalin-3-yl)piperazin-1-yl)ethyl]phenyl}thiazoles as atypical antipsychotic agents” (Med Chem Res, 2013).
The source made the active and inactive calls. No cut-off for these calls is given here.

Key:
Mus musculus [1] = assay: Selectivity ratio of inhibition of 5-HT2A receptor in Swiss albino Mus musculus (mouse) to inhibition of dopaminergic D2 receptor in Swiss albino Mus musculus (mouse) at 10 mg/kg, ip; type: functional; conditions: route intraperitoneal
[2] = target: 5-hydroxytryptamine receptor 2A (Rattus norvegicus) (UniProt P14842); assay: Displacement of [3H]ketanserin from 5-HT2A receptor in Rattus norvegicus (rat) cortex membrane homogenates at 10 uM after 90 min by liquid scintillation counting analysis
Sequence of 5-hydroxytryptamine receptor 2A (Rattus norvegicus) (P14842 whole entry): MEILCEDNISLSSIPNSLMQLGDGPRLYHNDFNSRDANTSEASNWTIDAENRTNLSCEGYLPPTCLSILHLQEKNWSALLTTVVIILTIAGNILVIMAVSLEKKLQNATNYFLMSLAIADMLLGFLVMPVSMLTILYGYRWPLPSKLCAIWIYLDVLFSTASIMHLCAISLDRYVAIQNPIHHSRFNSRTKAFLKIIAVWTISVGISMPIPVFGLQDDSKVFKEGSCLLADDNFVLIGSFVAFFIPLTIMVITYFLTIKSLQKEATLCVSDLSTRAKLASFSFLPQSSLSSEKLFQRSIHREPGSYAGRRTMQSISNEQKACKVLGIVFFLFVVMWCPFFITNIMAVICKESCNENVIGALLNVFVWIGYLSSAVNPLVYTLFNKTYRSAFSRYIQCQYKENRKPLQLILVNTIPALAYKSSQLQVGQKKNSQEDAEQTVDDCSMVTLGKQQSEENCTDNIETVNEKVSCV

Mus musculus [3] = assay: In vivo inhibition of 5-HT2A receptor in Swiss albino Mus musculus (mouse) at 10 mg/kg, ip relative to vehicle-treated control; type: functional; conditions: route intraperitoneal
Mus musculus [4] = assay: Antagonist activity at nigrostriatal dopaminergic D2 receptor in Swiss albino Mus musculus (mouse) assessed as maximum average cataleptic time at 10 mg/kg, ip after 1 to 5 hr relative to vehicle-treated control; type: organism-based; set-up: dose 10 mg/kg, route intraperitoneal; conditions: in vivo
[5] = target: D(2) dopamine receptor (Rattus norvegicus) (UniProt P61169); assay: Displacement of [3H]spiperone from dopaminergic D2 receptor in Rattus norvegicus (rat) straitum membrane homogenates up to 1 uM after 60 min by liquid scintillation counting analysis
Sequence of D(2) dopamine receptor (Rattus norvegicus) (P61169 whole entry): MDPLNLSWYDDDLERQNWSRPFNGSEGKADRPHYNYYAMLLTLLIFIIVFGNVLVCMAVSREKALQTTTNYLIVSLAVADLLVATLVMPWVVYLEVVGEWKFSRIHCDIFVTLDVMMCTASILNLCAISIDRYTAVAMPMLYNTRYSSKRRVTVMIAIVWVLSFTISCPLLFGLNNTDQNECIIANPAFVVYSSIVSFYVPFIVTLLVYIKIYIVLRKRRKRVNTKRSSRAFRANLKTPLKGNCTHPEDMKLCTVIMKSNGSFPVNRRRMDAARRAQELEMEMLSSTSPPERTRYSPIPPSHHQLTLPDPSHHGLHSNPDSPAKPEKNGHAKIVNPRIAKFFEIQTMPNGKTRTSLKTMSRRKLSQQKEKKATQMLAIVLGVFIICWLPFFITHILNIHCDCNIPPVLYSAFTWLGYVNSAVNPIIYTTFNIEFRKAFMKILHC

Mus musculus [6] = assay: Antagonist activity at mesolimbic dopaminergic D2 receptor in Swiss albino Mus musculus (mouse) assessed as inhibition of apomorphine-induced cage climbing behavior at 10 mg/kg, ip administered 1 hr prior to apomorphine challenge measured after 30 min relative to vehicle-treated control; type: functional; conditions: route intraperitoneal
Mus musculus [7] = assay: Antagonist activity at central serotonergic 5-HT2A receptor in Swiss albino Mus musculus (mouse) assessed as inhibition of quipazine meleate-induced head twiches at 10 mg/kg, ip administered 1 hr prior to quipazine meleate challenge measured after 30 to 40 min relative to vehicle-treated control; type: functional; conditions: route intraperitoneal
[8] = target: 5-hydroxytryptamine receptor 2A (Rattus norvegicus) (UniProt P14842); assay: Displacement of [3H]ketanserin from 5-HT2A receptor in Rattus norvegicus (rat) cortex membrane homogenates up to 1 uM after 90 min by liquid scintillation counting analysis
[9] = target: D(2) dopamine receptor (Rattus norvegicus) (UniProt P61169); assay: Displacement of [3H]spiperone from D2 receptor in Rattus norvegicus (rat) straitum membrane homogenates at 100 uM after 60 min by liquid scintillation counting analysis
Mus musculus [10] = assay: Antagonist activity at mesolimbic dopaminergic D2 receptor in Swiss albino Mus musculus (mouse) assessed as inhibition of apomorphine-induced cage climbing behavior at 10 mg/kg, ip administered 1 hr prior to apomorphine challenge measured after 20 min relative to vehicle-treated control; type: functional; conditions: route intraperitoneal
Mus musculus [11] = assay: In vivo inhibition of dopaminergic D2 receptor in Swiss albino Mus musculus (mouse) at 10 mg/kg, ip relative to vehicle-treated control; type: functional; conditions: route intraperitoneal
Mus musculus [12] = assay: Antagonist activity at mesolimbic dopaminergic D2 receptor in Swiss albino Mus musculus (mouse) assessed as inhibition of apomorphine-induced cage climbing behavior at 10 mg/kg, ip administered 1 hr prior to apomorphine challenge measured after 10 min relative to vehicle-treated control; type: functional; conditions: route intraperitoneal
[13] = target: D(2) dopamine receptor (Rattus norvegicus) (UniProt P61169); assay: Displacement of [3H]spiperone from D2 receptor in Rattus norvegicus (rat) straitum membrane homogenates at 10 uM after 60 min by liquid scintillation counting analysis

Structure (SMILES)	inhibition [2]	inhibition [5]	inhibition [8]	inhibition [9]	inhibition [13]	Selectivity ratio (Mus musculus [1])	inhibition in vivo at 10 mg/kg (Mus musculus [3])	Time (Mus musculus [4])	inhibition in vivo at 10 mg/kg (Mus musculus [6])	inhibition in vivo at 10 mg/kg (Mus musculus [7])	inhibition in vivo at 10 mg/kg (Mus musculus [10])	Imax (Mus musculus [11])	inhibition in vivo at 10 mg/kg (Mus musculus [12])
Oc1nc(-c2ccc(CCN3CCN(c4nc5ccccc5nc4Cl)CC3)cc2)cs1	0%	inactive	inactive	0%	–	0.9667	58%	28.25 s	50%	58%	60%	60%	60%
Cc1nc(-c2ccc(CCN3CCN(c4cnc5ccccc5n4)CC3)cc2)c(C)s1	–	inactive	inactive	–	–	0.4571	32%	9.32 s	70%	32%	50%	70%	25%
COc1nc2ccccc2nc1N1CCN(CCc2ccc(-c3nc(N)sc3C)cc2)CC1	–	inactive	inactive	–	–	0.75	60%	10.78 s	65%	60%	80%	80%	65%
Cc1nc(-c2ccc(CCN3CCN(c4nc5ccccc5nc4Cl)CC3)cc2)cs1	30%	inactive	inactive	0%	–	0.775	62%	3.25 s	75%	62%	65%	80%	80%
CNc1nc(-c2ccc(CCN3CCN(c4nc5ccccc5nc4OC)CC3)cc2)cs1	58%	inactive	inactive	40%	inactive	0.6	51%	10.67 s	65%	51%	85%	85%	60%
Nc1nc(-c2ccc(CCN3CCN(c4nc5ccccc5nc4Cl)CC3)cc2)cs1	4%	inactive	inactive	0%	–	1.129	79%	18.24 s	70%	79%	60%	70%	65%
COc1nc2ccccc2nc1N1CCN(CCc2ccc(-c3csc(O)n3)cc2)CC1	28%	inactive	inactive	0%	–	1.031	67%	7.9 s	60%	67%	60%	65%	65%
COc1nc2ccccc2nc1N1CCN(CCc2ccc(-c3nc(C)sc3C)cc2)CC1	–	inactive	inactive	–	–	0.7647	65%	11.25 s	65%	65%	70%	85%	85%
Cc1nc(-c2ccc(CCN3CCN(c4nc5ccccc5nc4Cl)CC3)cc2)c(C)s1	31%	inactive	inactive	0%	–	0.6375	51%	9.25 s	80%	51%	60%	80%	60%
Cc1sc(N)nc1-c1ccc(CCN2CCN(c3nc4ccccc4nc3Cl)CC2)cc1	0%	inactive	inactive	0%	–	1.075	86%	23.5 s	65%	86%	80%	80%	80%
CNc1nc(-c2ccc(CCN3CCN(c4nc5ccccc5nc4OC)CC3)cc2)c(C)s1	–	inactive	inactive	–	–	1.143	80%	3.12 s	70%	80%	50%	70%	60%

More lines, main results first:

inhibition [2]	inhibition [5]	inhibition [8]	inhibition [9]	inhibition [13]	Structure (SMILES)	Selectivity ratio (Mus musculus [1])	inhibition in vivo at 10 mg/kg (Mus musculus [3])	Time (Mus musculus [4])	inhibition in vivo at 10 mg/kg (Mus musculus [6])	inhibition in vivo at 10 mg/kg (Mus musculus [7])	inhibition in vivo at 10 mg/kg (Mus musculus [10])	Imax (Mus musculus [11])	inhibition in vivo at 10 mg/kg (Mus musculus [12])
22%	inactive	inactive	0%	–	Oc1nc(-c2ccc(CCN3CCN(c4cnc5ccccc5n4)CC3)cc2)cs1	1.231	80%	3.19 s	65%	80%	65%	65%	60%
63%	inactive	inactive	30%	inactive	Cc1nc(-c2ccc(CCN3CCN(c4cnc5ccccc5n4)CC3)cc2)cs1	0.9059	77%	5.17 s	85%	77%	55%	85%	75%
58%	inactive	inactive	0%	–	Cc1sc(N)nc1-c1ccc(CCN2CCN(c3cnc4ccccc4n3)CC2)cc1	0.3263	31%	2.64 s	60%	31%	80%	95%	95%
–	inactive	inactive	–	–	CNc1nc(-c2ccc(CCN3CCN(c4cnc5ccccc5n4)CC3)cc2)c(C)s1	0.7333	55%	3.88 s	65%	55%	75%	75%	60%
31%	inactive	inactive	0%	–	CNc1nc(-c2ccc(CCN3CCN(c4nc5ccccc5nc4Cl)CC3)cc2)c(C)s1	0.8526	81%	8.12 s	70%	81%	95%	95%	95%
14%	inactive	inactive	0%	–	CNc1nc(-c2ccc(CCN3CCN(c4nc5ccccc5nc4Cl)CC3)cc2)cs1	0.5125	41%	3.96 s	80%	41%	80%	80%	60%
57%	inactive	inactive	0%	–	CNc1nc(-c2ccc(CCN3CCN(c4cnc5ccccc5n4)CC3)cc2)cs1	0.6	36%	9.32 s	60%	36%	50%	60%	25%
